Results reported in US20260209234A1, “SUBSTITUTED DIHYDROPYRROLO[3,4-D]PYRIMIDINE COMPOUNDS AND THEIR USE IN TREATING MEDICAL CONDITIONS” (Karuna Therapeutics, Inc., priority 2022, published 2026).

Legend:
[1] = biological target: T1, hM4 receptors (Homo sapiens, UniProt P08173); assay: Human M4 PAM pERK assay; type: cell-based; conditions: CHO cells expressing hM4; EC20 of acetylcholine (10 nM final); TR-FRET
T1 construct: expressed in transfected cells; host or cells: CHO cells
T1 sequence (P08173 1-479): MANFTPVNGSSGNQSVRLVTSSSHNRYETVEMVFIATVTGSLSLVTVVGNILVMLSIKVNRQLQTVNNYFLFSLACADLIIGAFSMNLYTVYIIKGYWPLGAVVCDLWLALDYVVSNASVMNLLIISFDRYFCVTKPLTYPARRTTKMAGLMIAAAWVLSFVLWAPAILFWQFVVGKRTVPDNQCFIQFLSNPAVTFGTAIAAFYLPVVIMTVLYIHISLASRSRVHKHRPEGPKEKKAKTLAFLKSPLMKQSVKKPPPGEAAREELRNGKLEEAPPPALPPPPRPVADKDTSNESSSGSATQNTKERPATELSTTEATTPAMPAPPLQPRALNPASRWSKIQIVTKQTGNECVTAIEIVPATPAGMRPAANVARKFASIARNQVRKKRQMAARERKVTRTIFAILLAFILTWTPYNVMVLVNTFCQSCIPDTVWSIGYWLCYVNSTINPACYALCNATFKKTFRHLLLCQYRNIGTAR
Method: (§1) Chinese hamster ovary (CHO) cells expressing either hM4 or rM4 receptors were frozen in assay ready vials (5×10^6 cells/vial) after bulking-up in culture. The day before an assay, vial(s) were thawed and cells seeded in 384 well white proxiplates at 1000/well for hM4 cells and at 2000/well for rM4 cells, in 10 μL of growth media (Hams/F12 with glutamax and 10% FCS) and incubated overnight at 37° C./5% CO2.
(§2) On the following morning, the growth media was removed by ‘flicking out’ over a bin, patting the inverted plate onto tissue, and then replacing with 10 μL of wash media (Hams/F12 with glutamax and 8 mM HEPES, NB: serum free). Then, the wash media was removed in the same way and replaced with 8 μL/well of the serum free media. Plates were then re-incubated for a further 4 hours at 37° C./5% CO2.
(§3) Compounds for testing were solubilized to 10 mM in DMSO and compound addition plates, consisting of ten-point concentration response curves (CRC) in duplicate points (10 μM top concentration, 1/2 log dilution series), were prepared by acoustic dispensing and the compound management group.
(§4) After the 4-hour incubation in serum free media, a 4 μL aliquot of the 3× compound solution containing an EC20 of acetylcholine (10 nM final concentration) was added to the cell plate using a 384 well plate to plate transfer. Then, the plate lid was replaced, and the cells incubated for 5 mins at 37° C./5% CO2. Following this final incubation, all cellular processes were stopped by the addition of 4 μL/well of lysis and blocking buffer and plates were incubated for 30 minutes at RT on an orbital shaker (gentle setting). Then, a final addition of 4 μL/well of antibody detection mix, containing both the Europium-Cryptate (donor) and d2 (acceptor) tagged detection components, was added followed by a further 2-hour incubation at RT, and then the plate was read using a TR-FRET (time resolved fluorescence resonance energy transfer) based protocol.

[2] = biological target: T2, rM4 receptors (Rattus norvegicus, UniProt P08485); assay: Rat M4 PAM pERK assay; type: cell-based; conditions: CHO cells expressing rM4; EC20 of acetylcholine (10 nM final); TR-FRET
T2 construct: expressed in transfected cells; host or cells: CHO cells
T2 sequence (P08485 1-478): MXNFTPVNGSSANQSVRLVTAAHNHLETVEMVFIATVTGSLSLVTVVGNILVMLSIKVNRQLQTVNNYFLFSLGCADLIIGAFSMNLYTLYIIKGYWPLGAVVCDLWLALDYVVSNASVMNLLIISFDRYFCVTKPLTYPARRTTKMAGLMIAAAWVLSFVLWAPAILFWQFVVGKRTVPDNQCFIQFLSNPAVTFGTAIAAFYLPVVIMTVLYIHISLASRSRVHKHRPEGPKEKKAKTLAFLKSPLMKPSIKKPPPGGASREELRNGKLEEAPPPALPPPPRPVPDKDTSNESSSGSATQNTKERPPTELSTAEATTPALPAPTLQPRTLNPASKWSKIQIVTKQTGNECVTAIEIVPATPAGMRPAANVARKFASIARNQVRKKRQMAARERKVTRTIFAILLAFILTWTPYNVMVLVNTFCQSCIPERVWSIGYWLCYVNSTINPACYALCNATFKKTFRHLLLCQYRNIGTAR
Method: as §1, §2, §3, §4

[3] = biological target: T3, human M4 receptor (Homo sapiens, UniProt P08173); assay: M4 GTPγS PAM assay; type: biochemical; conditions: membranes of CHO-K1 cells stably expressing human M4; EC20 acetylcholine 40 nM; 35S-GTP
T3 construct: expressed in transfected cells
T3 sequence (P08173 1-479): T1 sequence (P08173 1-479)
Method: The M4 GTPγS PAM method was used. Membranes were prepared for GTPgS binding assays from CHO-K1 cells stably expressing human M4 receptor. Briefly, cells were grown in 5-layer cell culture flasks. Cells were washed with 50 mL of PBS and then dissociated with 0.05% trypsin. Dissociated cells were then collected by centrifugation at 650×g for 8 minutes at 4° C. Pellets were washed again in PBS by centrifugation and resuspended in 30 mL of 20 mM HEPES, 10 mM EDTA, pH 7.4. After sitting on ice for 30 min, membranes were collected by centrifugation at 50000×g for 15′ at 4° C., resuspended in 30 mL of 20 mM HEPES, 0.1 mM EDTA, pH 7.4 and collected again by centrifugation. Pellets were then washed twice by centrifugation in 30 mL of 20 mM HEPES, pH 7.4, and stored at −80° C. until the day of the assay. On the day of the assay, pellets were thawed on ice and resuspended in 1 mL of 20 mM HEPES, pH 7.4, 10 mM MgCl2, 100 mM NaCl using dounce homogenization. Membrane protein concentration is determined by BCA protein assay (Promega, Madison, WI) according to Promega guidelines.
On the day of the assay, serial dilutions of test PAM compounds were brought up in assay buffer (20 mM HEPES, 10 mM MgCl2, 100 mM NaCl) at 4× final assay concentration. […] of membrane homogenates (containing […] of membrane protein) were prepared in assay buffer supplemented with GDP at 4× final assay concentration (final assay concentration of GDP is 5 μM for M2 and 0.1 μM for M4) and dispensed into 96 well polypropylene, U-bottom Greiner plates. […] of vehicle or test PAM compound at 4× of final assay concentration diluted in the assay buffer were added to membrane and plates are incubated for 10-15 minutes at room temperature with gentle shaking. Then, […] of EC20 acetylcholine in assay buffer at 4× final assay concentration was added to assay plates (EC20 final assay concentrations was 40 nM for human M4).
Plates were then incubated, with shaking, for an additional 10-15 minutes. […] of 0.4 nM 35S-GTP (Perkin Elmer, Waltham, MA) in assay buffer was added to assay mixtures. The binding reaction is left on the shaker for 1 hour at room temperature. Membranes in assay reactions were then transferred to GF/C filter plates (Unifilter, Perkin Elmer) and washed three times using a FilterMate Harvester (Perkin Elmer) with cold assay buffer containing no GDP. Filter plates were then dried at 40° C. overnight followed by the addition of […] of Beta Plate Scintillation liquid. Plates are top and bottom sealed before being read on TopCount scintillation counter (Perkin Elmer, Waltham, MA).

| EC50 [1] [nM] | EC50 [2] [nM] | EC50 [3] [nM] | SMILES |
| --- | --- | --- | --- |
| 100 to 500 | 100 to 500 | 100 to 500 | COc1nc(C#N)nc2c1C(C)N(C(=O)CC1CN(c3cccc(F)c3F)C1)C2 (single isomer, unassigned) [Compound I-19, 6-(2-(1-(2,3-Difluorophenyl)azetidin-3-yl)acetyl)-4-methoxy-5-methyl-6,7-dihydro-5H-pyrrolo[3,4-d]pyrimidine-2-carbonitrile] |
| ≥ 2000 | ≥ 2000 | ≥ 2000 | COc1nc(C#N)nc2c1C(C)N(C(=O)CC1CN(c3cccc(F)c3F)C1)C2 (single isomer, unassigned) [Compound I-20, 6-(2-(1-(2,3-Difluorophenyl)azetidin-3-yl)acetyl)-4-methoxy-5-methyl-6,7-dihydro-5H-pyrrolo[3,4-d]pyrimidine-2-carbonitrile] |
| ≥ 2000 | ≥ 2000 | ≥ 2000 | COc1nc(C#N)nc2c1C(C)N(C(=O)CC1CN(c3ccc(C4CC4)c(F)c3)C1)C2 (single isomer, unassigned) [Compound I-21, 6-(2-(1-(4-Cyclopropyl-3-fluorophenyl)azetidin-3-yl)acetyl)-4-methoxy-5-methyl-6,7-dihydro-5H-pyrrolo[3,4-d]pyrimidine-2-carbonitrile] |
| 100 to 500 | 100 to 500 | 100 to 500 | COc1nc(C#N)nc2c1C(C)N(C(=O)CC1CN(c3ccc(C4CC4)c(F)c3)C1)C2 (single isomer, unassigned) [Compound I-22, 6-(2-(1-(4-Cyclopropyl-3-fluorophenyl)azetidin-3-yl)acetyl)-4-methoxy-5-methyl-6,7-dihydro-5H-pyrrolo[3,4-d]pyrimidine-2-carbonitrile] |
| ≤ 100 | 100 to 500 | ≤ 100 | COc1nc(C#N)nc2c1C(C)N(C(=O)CC1CN(c3ccc(C#N)cc3)C1)C2 (single isomer, unassigned) [Compound I-23, 6-(2-(1-(4-Cyanophenyl)azetidin-3-yl)acetyl)-4-methoxy-5-methyl-6,7-dihydro-5H-pyrrolo[3,4-d]pyrimidine-2-carbonitrile] |
| ≥ 2000 | ≥ 2000 | ≥ 2000 | COc1nc(C#N)nc2c1C(C)N(C(=O)CC1CN(c3cnnc(C(F)(F)F)c3)C1)C2 (single isomer, unassigned) [Compound I-24, 4-Methoxy-5-methyl-6-(2-(1-(6-(trifluoromethyl)pyridazin-4-yl)azetidin-3-yl)acetyl)-6,7-dihydro-5H-pyrrolo[3,4-d]pyrimidine-2-carbonitrile] |
| 100 to 500 | 500 to 2000 | 100 to 500 | COc1nc(C#N)nc2c1C(C)N(C(=O)CC1CN(c3cnnc(C(F)(F)F)c3)C1)C2 (single isomer, unassigned) [Compound I-25, 4-Methoxy-5-methyl-6-(2-(1-(6-(trifluoromethyl)pyridazin-4-yl)azetidin-3-yl)acetyl)-6,7-dihydro-5H-pyrrolo[3,4-d]pyrimidine-2-carbonitrile] |
| ≤ 100 | 500 to 2000 | ≥ 2000 | COc1nc(C#N)nc2c1C(C)N(C(=O)CC1CN(c3cncnc3)C1)C2 (single isomer, unassigned) [Compound I-27, 4-Methoxy-5-methyl-6-(2-(1-(pyrimidin-5-yl)azetidin-3-yl)acetyl)-6,7-dihydro-5H-pyrrolo[3,4-d]pyrimidine-2-carbonitrile] |
| ≤ 100 | 100 to 500 | ≤ 100 | COc1nc(C#N)nc2c1C(C)N(C(=O)CC1CN(c3ccnc(OC(F)F)c3)C1)C2 (single isomer, unassigned) [Compound I-28, 6-(2-(1-(2-(Difluoromethoxy)pyridin-4-yl)azetidin-3-yl)acetyl)-4-methoxy-5-methyl-6,7-dihydro-5H-pyrrolo[3,4-d]pyrimidine-2-carbonitrile] |
| 100 to 500 | 500 to 2000 | 100 to 500 | COc1nc(C#N)nc2c1C(C)N(C(=O)CC1CN(c3ccncc3F)C1)C2 (single isomer, unassigned) [Compound I-29, 6-(2-(1-(3-Fluoropyridin-4-yl)azetidin-3-yl)acetyl)-4-methoxy-5-methyl-6,7-dihydro-5H-pyrrolo[3,4-d]pyrimidine-2-carbonitrile] |
| ≤ 100 | 100 to 500 | 100 to 500 | COc1nc(C#N)nc2c1C(C)N(C(=O)CC1CN(c3ccnc(C(C)(C)O)c3)C1)C2 (single isomer, unassigned) [Compound I-30, 6-(2-(1-(2-(2-Hydroxypropan-2-yl)pyridin-4-yl)azetidin-3-yl)acetyl)-4-methoxy-5-methyl-6,7-dihydro-5H-pyrrolo[3,4-d]pyrimidine-2-carbonitrile] |
| ≥ 2000 | ≥ 2000 | ≥ 2000 | COc1nc(C#N)nc2c1C(C)N(C(=O)CC1CN(c3ccc(C4CC4)nc3)C1)C2 (single isomer, unassigned) [Compound I-32, 6-(2-(1-(6-Cyclopropylpyridin-3-yl)azetidin-3-yl)acetyl)-4-methoxy-5-methyl-6,7-dihydro-5H-pyrrolo[3,4-d]pyrimidine-2-carbonitrile] |
